{"source": "paper PMC11078990", "about": "“Identification and characterization of small molecule inhibitors of the LINE-1 retrotransposon endonuclease” (Nature Communications, 2024)", "key": {"[1]": {"system": "substrate oligonucleotide used in the EN activity assay", "type": "binding", "parameters": "key to Binding Detected? (Y/N): Binding Detected? (Y/N); Binding Detected? (Y/N)"}, "L1 retrotransposition": {"system": "L1 retrotransposition", "test": "HeLa dual-luciferase L1 retrotransposition assay", "type": "cell-based, human"}, "[2]": {"molecular_target": "L1 EN (LINE-1 retrotransposon endonuclease domain) (Homo sapiens, UniProt O00370, N5T)", "sequence (O00370 1-239 N5T)": "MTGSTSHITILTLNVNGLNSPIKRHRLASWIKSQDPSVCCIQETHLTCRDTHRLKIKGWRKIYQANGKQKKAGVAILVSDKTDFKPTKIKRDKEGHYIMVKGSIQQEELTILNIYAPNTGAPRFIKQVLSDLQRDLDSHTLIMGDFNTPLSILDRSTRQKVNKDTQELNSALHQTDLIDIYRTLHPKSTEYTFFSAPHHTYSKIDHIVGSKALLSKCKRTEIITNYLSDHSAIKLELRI", "test": "Fluorescent oligonucleotide EN nicking activity assay", "type": "biochemical"}, "APE1": {"molecular_target": "T1, APE1 (Homo sapiens, UniProt P27695)", "T1 construct": "purchased New England Biolabs (NEB) M0282S", "test": "APE1 fluorescent oligonucleotide activity assay (abasic site substrate)", "type": "biochemical", "settings": "for activity at 25 µM: read-out: APE1 activity (%)"}, "HeLa Tet-On cells": {"system": "HeLa Tet-On cells", "settings": "human"}, "[3]": {"system": "DNA fragmentation (comet tail length) in HeLa Tet-On cells expressing EN domain", "test": "Neutral comet assay, EN domain-only constructs", "type": "cell-based, human", "settings": "50 μM inhibitor; EN domain-only construct; neutral comet assay; normalised to WT"}, "[4]": {"settings": "read-out: EN activity, percent of no inhibitor control"}}, "note": "Several values for one entry are separate records, joined by “and”; a condition that tells them apart may be missing. Equal values may be shown once. Read-outs that look alike come from different tables or passages of the source.", "data": [{"smiles": "Nn1cnn2c(SCC(=O)Nc3nnc(SCC(=O)Nc4ccc(S(N)(=O)=O)cc4)s3)nnc12", "note": "[AD29]", "values": [{"measurement": "Binding Detected? (Y/N)", "setting": "[1]", "result": "N"}, {"measurement": "Luciferase (retrotransposition), average", "setting": "L1 retrotransposition; Figure 4a Graph 4, 50μM, 0μM average 3.426", "result": 2.638}, {"measurement": "Luciferase (retrotransposition), replicates", "setting": "L1 retrotransposition; Figure 4a Graph 4, 50μM, Replicates 1-4, 0μM average 3.426", "result": "2.47 and 2.591 and 2.484 and 3.007"}, {"measurement": "EN activity, percent of no inhibitor control", "setting": "[2]; [Inhibitor] 0.5 μM, technical replicates 1-3, Fig. 2b source data, 0.5 µM", "result": "96.7352% and 105.013%"}, {"measurement": "remaining activity at 0.5 µM", "setting": "[2]; [Inhibitor] 0.5 μM, technical replicates 1-3, Fig. 2b source data, read-out: EN activity, percent of no inhibitor control", "result": 97.3, "unit": "%"}, {"measurement": "EN activity, percent of no inhibitor control", "setting": "[2]; [Inhibitor] 5 μM, technical replicates 1-3, Fig. 2b source data, 5 µM", "result": "89.8647% and 119.947% and 95.1949%"}, {"measurement": "EN activity, percent of no inhibitor control", "setting": "[2]; [Inhibitor] 10 μM, technical replicates 1-3, Fig. 2b source data, 10 µM", "result": "90.2289% and 93.2039%"}, {"measurement": "remaining activity at 10 µM", "setting": "[2]; [Inhibitor] 10 μM, technical replicates 1-3, Fig. 2b source data, read-out: EN activity, percent of no inhibitor control", "result": 89.2, "unit": "%"}, {"measurement": "EN activity, percent of no inhibitor control", "setting": "[2]; [Inhibitor] 25 μM, technical replicates 1-3, Fig. 2b source data, 25 µM", "result": "63.7726% and 70.2623%"}, {"measurement": "remaining activity at 25 µM", "setting": "[2]; [Inhibitor] 25 μM, technical replicates 1-3, Fig. 2b source data, read-out: EN activity, percent of no inhibitor control", "result": 64.2, "unit": "%"}, {"measurement": "EN activity, percent of no inhibitor control", "setting": "[2]; [Inhibitor] 50 μM, technical replicates 1-3, Fig. 2b source data, 50 µM", "result": "34.0986% and 27.5313%"}, {"measurement": "remaining activity at 50 µM", "setting": "[2]; [Inhibitor] 50 μM, technical replicates 1-3, Fig. 2b source data, read-out: EN activity, percent of no inhibitor control", "result": 24.6, "unit": "%"}, {"measurement": "EN activity, percent of no inhibitor control", "setting": "[2]; [Inhibitor] 100 μM, technical replicates 1-3, Fig. 2b source data, 100 µM", "result": "8.595% and 8.689%"}, {"measurement": "remaining activity at 100 µM", "setting": "[2]; [Inhibitor] 100 μM, technical replicates 1-3, Fig. 2b source data, read-out: EN activity, percent of no inhibitor control", "result": 5.53, "unit": "%"}, {"measurement": "EN activity, percent of no inhibitor control", "setting": "[2]; [Inhibitor] 250 μM, technical replicates 1-3, Fig. 2b source data, 250 µM", "result": "1.937% and 2.743%"}, {"measurement": "remaining activity at 250 µM", "setting": "[2]; [Inhibitor] 250 μM, technical replicates 1-3, Fig. 2b source data, read-out: EN activity, percent of no inhibitor control", "result": 2.22, "unit": "%"}, {"measurement": "EN activity, percent of no inhibitor control", "setting": "[2]; [Inhibitor] 500 μM, technical replicates 1-3, Fig. 2b source data, 500 µM", "result": "1.591% and 1.804% and 0.7296%"}, {"measurement": "APE1 percent activity, Replicate 1", "setting": "APE1; compound at 25 μM, Replicate 1", "result": 83.829, "unit": "%"}, {"measurement": "APE1 percent activity, Replicate 2", "setting": "APE1; compound at 25 μM, Replicate 2", "result": 79.0708, "unit": "%"}, {"measurement": "APE1 percent activity, Replicate 3", "setting": "APE1; compound at 25 μM, Replicate 3", "result": 80.6497, "unit": "%"}, {"measurement": "APE1 percent activity, average", "setting": "APE1; compound at 25 μM, average of 3 replicates", "result": 81.1831, "unit": "%"}, {"measurement": "activity at 25 µM", "setting": "APE1; inhibitors at 25 μM, relative to 0 μM inhibitor control, mean ± s.d., 3 independent experiments", "result": "81.2 ± 2.4", "unit": "%"}, {"measurement": "PrestoBlue (viability), average", "setting": "HeLa Tet-On cells; 48 h, 50 μM", "result": 15.21}, {"measurement": "Nuclei comet tail length, average (WT = 1)", "setting": "[3]", "result": 0.4772}]}, {"smiles": "Cc1cc(=O)oc2c3c(ccc12)O/C(=N/Nc1ccc([N+](=O)[O-])cc1[N+](=O)[O-])C3=O", "note": "[AD5]", "values": [{"measurement": "Binding Detected? (Y/N)", "setting": "[1]", "result": "N"}, {"measurement": "Effect on L1 retrotransposition", "setting": "L1 retrotransposition", "result": "did not significantly impact retrotransposition"}, {"measurement": "Luciferase (retrotransposition), average", "setting": "L1 retrotransposition", "result": 7.139}, {"measurement": "Luciferase (retrotransposition), replicates", "setting": "L1 retrotransposition", "result": "5.447 and 9.3633 and 6.616 and 7.129"}, {"measurement": "EN activity, percent of no inhibitor control", "setting": "[2]; 0.5 µM", "result": "83.4432% and 74.5276%"}, {"measurement": "EN activity, percent of no inhibitor control", "setting": "[2]; 2 µM", "result": "70.978% and 73.9003%"}, {"measurement": "EN activity, percent of no inhibitor control", "setting": "[2]; 5 µM", "result": "74.0185% and 75.6649%"}, {"measurement": "EN activity, percent of no inhibitor control", "setting": "[2]; 10 µM", "result": "77.2953% and 59.874% and 46.95%"}, {"measurement": "EN activity, percent of no inhibitor control", "setting": "[2]; 25 µM", "result": "51.0006% and 46.7642%"}, {"measurement": "EN activity, percent of no inhibitor control", "setting": "[2]; 100 µM", "result": "9.806% and 12.2088%"}, {"measurement": "EN activity, percent of no inhibitor control", "setting": "[2]; 250 µM", "result": "10.849% and 15.1279%"}, {"measurement": "EN activity, percent of no inhibitor control", "setting": "[2]; 500 µM", "result": "8.917% and 12.6828%"}, {"measurement": "remaining activity at 0.5 µM", "setting": "[2]; [4]", "result": 82.5, "unit": "%"}, {"measurement": "remaining activity at 2 µM", "setting": "[2]; [4]", "result": 78.9, "unit": "%"}, {"measurement": "remaining activity at 5 µM", "setting": "[2]; [4]", "result": 74.7, "unit": "%"}, {"measurement": "remaining activity at 25 µM", "setting": "[2]; [4]", "result": 46.1, "unit": "%"}, {"measurement": "remaining activity at 100 µM", "setting": "[2]; [4]", "result": 7.29, "unit": "%"}, {"measurement": "remaining activity at 250 µM", "setting": "[2]; [4]", "result": 12, "unit": "%"}, {"measurement": "remaining activity at 500 µM", "setting": "[2]; [4]", "result": 9.9, "unit": "%"}, {"measurement": "APE1 percent activity, Replicate 1", "setting": "APE1", "result": 111.351, "unit": "%"}, {"measurement": "APE1 percent activity, Replicate 2", "setting": "APE1", "result": 107.526, "unit": "%"}, {"measurement": "APE1 percent activity, Replicate 3", "setting": "APE1", "result": 109.094, "unit": "%"}, {"measurement": "APE1 percent activity, average", "setting": "APE1", "result": 109.324, "unit": "%"}, {"measurement": "activity at 25 µM", "setting": "APE1", "result": "109 ± 1.9", "unit": "%"}, {"measurement": "PrestoBlue (viability), average", "setting": "HeLa Tet-On cells", "result": 15.98}]}]}
